Measured values from patent publication US11331327B2, “Antibacterial use of halogenated salicylanilides” (UNION therapeutics A/S, priority 2014, dated 2022).
In brackets after ≈: the same amount, converted by molar mass. Read-outs that look alike come from different tables or passages of the source.

Tested on: S. aureus clinical isolates and S. aureus ATCC 29213
Experiment: MIC assay according to CLSI criteria, Example 2, S. aureus strains
Type: cell-based, Staphylococcus aureus
Conditions: Staphylococcus aureus, read-out: MIC
Description: Strains were conserved in Luria Bertani (LB) Broth (S. aureus) or Brain Heart Infusion (BHI) (S. pyogenes) supplemented with glycerol 15% (v/v) at −80° C., and reactivated by isolation on LB (S. aureus) or BHI (S. pyogenes) agar plates. Strains were cultivated in Mueller Hinton (MH) Broth-cation adjusted (S. aureus) or BHI (S. pyogenes). All strains were cultivated aerobically (microaerobically for S. pyogenes strains) at 37° C.
Bacterial cultures were stopped in their exponential growth phase and plates were inoculated with the approximate concentration of 5×10^5 cells per well. Plates were incubated at 37° C. for 18 hours (S. aureus) or 24 hours (S. pyogenes).

O=C(Nc1ccc([N+](=O)[O-])cc1Cl)c1cc(Cl)ccc1O [Niclosamide, 5-chloro-N-(2-chloro-4-nitrophenyl)-2-hydroxybenz-amide]
MIC (ATCC 29213 / MRSA, strain MRSA 12): 0.5 µg/mL (≈ 1.53 µM)
MIC (ATCC 29213 / MRSA, strain MRSA 13): 0.25 µg/mL (≈ 0.764 µM)
MIC (ATCC 29213 / MRSA, strain MRSA 14): 0.25 µg/mL (≈ 0.764 µM)
MIC (ATCC 29213 / MRSA, strain MRSA 15): 0.25 µg/mL (≈ 0.764 µM)
MIC (ATCC 29213 / MRSA, strain MRSA 16): 0.25 µg/mL (≈ 0.764 µM)
MIC (ATCC 29213 / MRSA, strain MRSA 17): 0.25 µg/mL (≈ 0.764 µM)
MIC (ATCC 29213 / MRSA, strain MRSA 18): 0.25 µg/mL (≈ 0.764 µM)
MIC (ATCC 29213 / MRSA, strain MRSA 19): 0.25 µg/mL (≈ 0.764 µM)
MIC (ATCC 29213 / MRSA, strain MRSA 20): 0.25 µg/mL (≈ 0.764 µM)
MIC (ATCC 29213 / MRSA, strain MRSA 21): 0.25 µg/mL (≈ 0.764 µM)
MIC (ATCC 29213 / MRSA, strain MRSA 22): 0.25 µg/mL (≈ 0.764 µM)
MIC (ATCC 29213 / MRSA, strain MRSA 23): 0.25 µg/mL (≈ 0.764 µM)
MIC (ATCC 29213 / MRSA, strain MRSA 24): 0.25 µg/mL (≈ 0.764 µM)
MIC (ATCC 29213 / MRSA, strain MRSA 25): 0.25 µg/mL (≈ 0.764 µM)
MIC (ATCC 29213 / MRSA, strain MRSA 26): 0.5 µg/mL (≈ 1.53 µM)
MIC (ATCC 29213 / MRSA, strain MRSA 27): 0.5 µg/mL (≈ 1.53 µM)
MIC (ATCC 29213 / MRSA, strain MRSA 27b): 0.25 µg/mL (≈ 0.764 µM)
MIC (ATCC 29213 / MRSA, strain MRSA 28): 0.25 µg/mL (≈ 0.764 µM)
MIC (ATCC 29213 / MRSA, strain MRSA 29): 0.5 µg/mL (≈ 1.53 µM)
MIC (ATCC 29213 / MRSA, strain MRSA 30): 0.25 µg/mL (≈ 0.764 µM)
MIC (ATCC 29213 / MRSA, strain MRSA 31): 0.25 µg/mL (≈ 0.764 µM)
MIC (ATCC 29213 / MRSA, strain MRSA 32): 0.25 µg/mL (≈ 0.764 µM)
MIC (ATCC 29213 / MRSA, strain MRSA 33): 0.25 µg/mL (≈ 0.764 µM)
MIC (ATCC 29213 / MRSA, strain MRSA 34): 0.25 µg/mL (≈ 0.764 µM)
MIC (ATCC 29213 / MRSA, strain MRSA 35): 0.25 µg/mL (≈ 0.764 µM)
MIC (ATCC 29213 / MRSA, strain MRSA 36): 0.25 µg/mL (≈ 0.764 µM)
MIC (ATCC 29213 / MRSA, strain MRSA 37): 0.25 µg/mL (≈ 0.764 µM)
MIC (ATCC 29213 / MRSA, strain MRSA 38): 0.25 µg/mL (≈ 0.764 µM)
MIC (ATCC 29213 / MRSA, strain MRSA 39): 0.25 µg/mL (≈ 0.764 µM)
MIC (ATCC 29213 / MRSA, strain MRSA 40): 0.25 µg/mL (≈ 0.764 µM)
MIC (ATCC 29213 / MRSA, strain MRSA 41): 0.25 µg/mL (≈ 0.764 µM)
MIC (ATCC 29213 / MRSA, strain MRSA 42): 0.25 µg/mL (≈ 0.764 µM)
MIC (ATCC 29213 / MRSA, strain MRSA 43): 0.25 µg/mL (≈ 0.764 µM)
MIC (ATCC 29213 / MRSA, strain MRSA 44): 0.25 µg/mL (≈ 0.764 µM)
MIC (ATCC 29213 / MRSA, strain MRSA 45): 0.25 µg/mL (≈ 0.764 µM)
MIC (ATCC 29213 / MRSA, strain MRSA 46): 0.25 µg/mL (≈ 0.764 µM)
MIC (ATCC 29213 / MRSA, strain MRSA 47): 0.25 µg/mL (≈ 0.764 µM)
MIC (ATCC 29213 / MRSA, strain MRSA 48): 0.25 µg/mL (≈ 0.764 µM)
MIC (ATCC 29213 / MRSA, strain MRSA 49): 0.25 µg/mL (≈ 0.764 µM)
MIC (ATCC 29213 / MRSA, strain MRSA 50): 0.25 µg/mL (≈ 0.764 µM)
MIC (ATCC 29213 / MRSA, strain MRSA 51): 0.125 µg/mL (≈ 0.382 µM)
MIC (ATCC 29213 / MRSA, strain MRSA 52): 0.25 µg/mL (≈ 0.764 µM)
MIC (ATCC 29213 / MRSA, strain MRSA 53): 0.25 µg/mL (≈ 0.764 µM)
MIC (ATCC 29213 / MRSA, strain MRSA 54): 0.25 µg/mL (≈ 0.764 µM)
MIC (ATCC 29213 / MRSA, strain MRSA 55): 0.25 µg/mL (≈ 0.764 µM)
MIC (ATCC 29213 / MRSA, strain MRSA 56): 0.25 µg/mL (≈ 0.764 µM)
MIC (ATCC 29213 / MRSA, strain MRSA 57): 0.25 µg/mL (≈ 0.764 µM)
MIC (ATCC 29213 / MRSA, strain MRSA 58): 0.25 µg/mL (≈ 0.764 µM)
MIC (ATCC 29213 / MRSA, strain MRSA 59): 0.25 µg/mL (≈ 0.764 µM)
MIC (ATCC 29213 / MRSA, strain MRSA 60): 0.25 µg/mL (≈ 0.764 µM)
MIC (ATCC 29213 / MRSA, strain MRSA 61): 0.25 µg/mL (≈ 0.764 µM)
MIC (ATCC 29213 / MRSA, strain MRSA 62): 0.25 µg/mL (≈ 0.764 µM)
MIC (ATCC 29213 / MRSA, strain MRSA 63): 0.25 µg/mL (≈ 0.764 µM)
MIC (ATCC 29213 / MRSA, strain MRSA 64): 0.25 µg/mL (≈ 0.764 µM)
MIC (ATCC 29213 / MRSA, strain MRSA 65): 0.25 µg/mL (≈ 0.764 µM)
MIC (ATCC 29213 / MRSA, strain MRSA 66): 0.25 µg/mL (≈ 0.764 µM)
MIC (ATCC 29213 / MRSA, strain MRSA 67): 0.25 µg/mL (≈ 0.764 µM)
MIC (ATCC 29213 / MRSA, strain MRSA 68): 0.25 µg/mL (≈ 0.764 µM)
MIC (ATCC 29213 / MRSA, strain MRSA 69): 0.25 µg/mL (≈ 0.764 µM)
MIC (ATCC 29213 / MRSA, strain MRSA 70): 0.125 µg/mL (≈ 0.382 µM)
MIC (ATCC 29213 / MRSA, strain MRSA 71): 0.25 µg/mL (≈ 0.764 µM)
MIC (ATCC 29213 / MRSA, strain MRSA 72): 0.25 µg/mL (≈ 0.764 µM)
MIC (ATCC 29213 / MRSA, strain MRSA 73): 0.5 µg/mL (≈ 1.53 µM)
MIC (ATCC 29213 / MRSA, strain MRSA 74): 0.25 µg/mL (≈ 0.764 µM)
MIC (ATCC 29213 / MRSA, strain MRSA 75): 0.5 µg/mL (≈ 1.53 µM)
MIC (ATCC 29213 / MRSA, strain MRSA 76): 0.25 µg/mL (≈ 0.764 µM)
MIC (ATCC 29213 / MRSA, strain MRSA 77): 0.25 µg/mL (≈ 0.764 µM)
MIC (ATCC 29213 / MRSA, strain MRSA 78): 0.5 µg/mL (≈ 1.53 µM)
MIC (ATCC 29213 / MRSA, strain MRSA 79): 0.25 µg/mL (≈ 0.764 µM)
MIC (ATCC 29213 / MRSA, strain MRSA 80): 0.5 µg/mL (≈ 1.53 µM)
MIC (ATCC 29213 / MRSA, strain MRSA 81): 0.5 µg/mL (≈ 1.53 µM)
MIC (ATCC 29213 / MRSA, strain MRSA 82): 0.25 µg/mL (≈ 0.764 µM)
MIC (ATCC 29213 / MRSA, strain MRSA 83): 0.5 µg/mL (≈ 1.53 µM)
MIC (ATCC 29213 / MRSA, strain MRSA 84): 0.25 µg/mL (≈ 0.764 µM)
MIC (ATCC 29213 / MRSA, strain MRSA 85): 0.5 µg/mL (≈ 1.53 µM)
MIC (ATCC 29213 / MRSA, strain MRSA 86): 0.25 µg/mL (≈ 0.764 µM)
MIC (ATCC 29213 / MRSA, strain MRSA 87): 0.25 µg/mL (≈ 0.764 µM)
MIC (ATCC 29213 / MRSA, strain MRSA 88): 0.25 µg/mL (≈ 0.764 µM)
MIC (ATCC 29213 / MRSA, strain MRSA 89): 0.5 µg/mL (≈ 1.53 µM)
MIC (ATCC 29213 / MRSA, strain MRSA 90): 0.5 µg/mL (≈ 1.53 µM)
MIC (ATCC 29213 / MRSA, strain MRSA 91): 0.25 µg/mL (≈ 0.764 µM)
MIC (ATCC 29213 / MRSA, strain MRSA 92): 0.25 µg/mL (≈ 0.764 µM)
MIC (ATCC 29213 / MRSA, strain MRSA 93): 0.25 µg/mL (≈ 0.764 µM)
MIC (ATCC 29213 / MRSA, strain MRSA 94): 0.25 µg/mL (≈ 0.764 µM)
MIC (ATCC 29213 / MRSA, strain MRSA 95): 0.25 µg/mL (≈ 0.764 µM)
MIC (ATCC 29213 / MRSA, strain MRSA 96): 0.25 µg/mL (≈ 0.764 µM)
MIC (ATCC 29213 / MRSA, strain MRSA 97): 0.25 µg/mL (≈ 0.764 µM)
MIC (ATCC 29213 / MRSA, strain MRSA 98): 0.5 µg/mL (≈ 1.53 µM)
MIC (ATCC 29213 / MRSA, strain MRSA 99): 0.25 µg/mL (≈ 0.764 µM)
MIC (ATCC 29213 / MRSA, strain MRSA 100): 0.25 µg/mL (≈ 0.764 µM)
MIC (ATCC 29213 / MRSA, strain MRSA 101): 0.5 µg/mL (≈ 1.53 µM)
MIC (ATCC 29213 / MRSA, strain MRSA 102): 0.25 µg/mL (≈ 0.764 µM)
MIC (ATCC 29213 / MRSA, strain MRSA 103): 0.25 µg/mL (≈ 0.764 µM)
MIC (ATCC 29213 / MRSA, strain MRSA 104): 0.5 µg/mL (≈ 1.53 µM)
MIC (ATCC 29213 / MRSA, strain MRSA 105): 0.25 µg/mL (≈ 0.764 µM)
MIC (ATCC 29213 / MRSA, strain MRSA 106): 0.25 µg/mL (≈ 0.764 µM)
MIC (ATCC 29213 / MRSA, strain MRSA 107): 0.25 µg/mL (≈ 0.764 µM)
MIC (ATCC 29213 / MRSA, strain MRSA 108): 0.25 µg/mL (≈ 0.764 µM)
MIC (ATCC 29213 / MRSA, strain MRSA 109): 0.25 µg/mL (≈ 0.764 µM)
MIC (ATCC 29213 / MRSA, strain MRSA 110): 0.25 µg/mL (≈ 0.764 µM)
MIC (ATCC 29213 / MRSA, strain MRSA 111): 0.5 µg/mL (≈ 1.53 µM)
MIC (ATCC 29213 / MRSA, strain MRSA 112): 0.25 µg/mL (≈ 0.764 µM)
MIC (ATCC 29213 / MRSA, strain MRSA 113): 0.25 µg/mL (≈ 0.764 µM)
MIC (ATCC 29213 / MSSA, strain MSSA 01): 0.5 µg/mL (≈ 1.53 µM)
MIC (ATCC 29213 / MSSA, strain MSSA 02): 0.25 µg/mL (≈ 0.764 µM)
MIC (ATCC 29213 / NEWMAN, strain Newman): 0.25 µg/mL (≈ 0.764 µM)
